From PubChem BioAssay (NCI)
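Here, GI50 denotes the concentration required for 50% inhibition of growth. TGI marks complete inhibition of growth.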

Assays:
Experiment in all cases: NCI-60 cell line screen, 384-well format
[1] = test system: A549 NSCLC
[2] = test system: EKVX NSCLC
[3] = test system: HCT-116 colon
[4] = test system: HL-60(TB) leukemia
[5] = test system: OVCAR-3 ovarian
[6] = test system: OVCAR-4 ovarian
[7] = test system: OVCAR-5 ovarian
[8] = test system: SK-MEL-28 melanoma
[9] = test system: SK-MEL-5 melanoma
[10] = test system: SN12C renal
[11] = test system: T-47D breast
[12] = test system: UACC-257 melanoma
[13] = test system: UO-31 renal

| SMILES | GI50 [1] [µM] | TGI [1] [µM] | GI50 [2] [µM] | TGI [2] [µM] | GI50 [3] [µM] | TGI [3] [µM] | GI50 [4] [µM] | TGI [4] [µM] | GI50 [5] [µM] | TGI [5] [µM] | GI50 [6] [µM] | TGI [6] [µM] | GI50 [7] [µM] | TGI [7] [µM] | GI50 [8] [µM] | TGI [8] [µM] | GI50 [9] [µM] | TGI [9] [µM] | GI50 [10] [µM] | TGI [10] [µM] | further results |
| --- | --- | --- | --- | --- | --- | --- | --- | --- | --- | --- | --- | --- | --- | --- | --- | --- | --- | --- | --- | --- | --- |
| CC[C@H](Nc1ncnc2nc[nH]c12)c1nc2cccc(F)c2c(=O)n1-c1ccccc1 | 32 | > 100 | 22.4 | > 84.8 | 39.9 | > 100 | 4.61 | 17.9 | 8.68 | > 73.4 | 64.6 | > 100 | > 57.4 | > 100 | 27.5 | > 100 | 7.4 | > 45.7 | 16.6 | > 100 | GI50 [11]: 5.22 µM; TGI [11]: 56.4 µM; GI50 [12]: > 74.9 µM; TGI [12]: > 100 µM; GI50 [13]: 5.12 µM |
| CC(C)Nc1cc(-c2c[nH]c(C(=O)N[C@H](CO)c3cccc(Cl)c3)c2)c(Cl)cn1 | 0.641 | 13.4 | 3.46 | 17.3 | 0.231 | 3.11 | 0.184 | 1.17 | 4.95 | 19.6 | 11.6 | 24 | 0.567 | 16.2 | 0.12 | 0.509 | 0.265 | 2.04 | 6.15 | 21.4 | GI50 [11]: 9.03 µM; TGI [11]: 21.9 µM; GI50 [12]: 0.144 µM; TGI [12]: 0.498 µM; GI50 [13]: 3.23 µM; TGI [13]: 16.8 µM |
